Data as given in PubChem BioAssay (NCI).
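96-well plates; 48 h exposure; 5 concentrations. Endpoints by linear interpolation between flanking doses. Not reached: highest tested concentration assigned. TGI marks complete inhibition of growth.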

Columns and labels:
Assay in all cases: growth of human tumour cells (NCI), 48 h
UACC-257 melanoma = system: UACC-257 melanoma
DLD-1 colon = system: DLD-1 colon
EKVX NSCLC = system: EKVX NSCLC
RXF 393 renal = system: RXF 393 renal
LOX IMVI melanoma = system: LOX IMVI melanoma
SF-295 CNS = system: SF-295 CNS
HOP-92 NSCLC = system: HOP-92 NSCLC
SN12C renal = system: SN12C renal
SNB-78 CNS = system: SNB-78 CNS
NCI-H226 lung = system: NCI-H226 lung
NCI-H23 lung = system: NCI-H23 lung
SK-MEL-28 melanoma = system: SK-MEL-28 melanoma
KM20L2 colon = system: KM20L2 colon
TK-10 renal = system: TK-10 renal
XF 498 CNS = system: XF 498 CNS
HCC-2998 colon = system: HCC-2998 colon
A549 NSCLC = system: A549 NSCLC
MALME-3M melanoma = system: MALME-3M melanoma
CAKI-1 renal = system: CAKI-1 renal
ACHN renal = system: ACHN renal
A498 renal = system: A498 renal
U251 CNS = system: U251 CNS
DMS 114 small cell lung = system: DMS 114 small cell lung
HCT-15 colon = system: HCT-15 colon
LXFL 529 NSCLC = system: LXFL 529 NSCLC
M14 melanoma = system: M14 melanoma
IGROV1 ovarian = system: IGROV1 ovarian
SF-268 CNS = system: SF-268 CNS
SNB-19 CNS = system: SNB-19 CNS
SK-MEL-2 melanoma = system: SK-MEL-2 melanoma
SF-539 CNS = system: SF-539 CNS
OVCAR-5 ovarian = system: OVCAR-5 ovarian
SK-MEL-5 melanoma = system: SK-MEL-5 melanoma
RPMI-8226 leukemia = system: RPMI-8226 leukemia
HOP-18 NSCLC = system: HOP-18 NSCLC
HL-60(TB) leukemia = system: HL-60(TB) leukemia
COLO 205 colon = system: COLO 205 colon
OVCAR-8 ovarian = system: OVCAR-8 ovarian
HT29 colon = system: HT29 colon
OVCAR-4 ovarian = system: OVCAR-4 ovarian
KM12 colon = system: KM12 colon
NCI-H460 lung = system: NCI-H460 lung
UO-31 renal = system: UO-31 renal
HCT-116 colon = system: HCT-116 colon
SW-620 colon = system: SW-620 colon
DMS 273 small cell lung = system: DMS 273 small cell lung
SNB-75 CNS = system: SNB-75 CNS
SR leukemia = system: SR leukemia

Measured: TGI

CCOC(=O)/C=C(\C)c1ccc(OC)cc1
> 100 µM: UACC-257 melanoma | DLD-1 colon | EKVX NSCLC | RXF 393 renal | LOX IMVI melanoma | SF-295 CNS | HOP-92 NSCLC | SN12C renal | SNB-78 CNS | NCI-H226 lung | NCI-H23 lung | SK-MEL-28 melanoma | KM20L2 colon | TK-10 renal | XF 498 CNS | HCC-2998 colon | A549 NSCLC | MALME-3M melanoma | CAKI-1 renal | ACHN renal | A498 renal | U251 CNS | DMS 114 small cell lung | HCT-15 colon | LXFL 529 NSCLC | M14 melanoma | IGROV1 ovarian | SF-268 CNS | SNB-19 CNS | SK-MEL-2 melanoma | SF-539 CNS | OVCAR-5 ovarian | SK-MEL-5 melanoma | RPMI-8226 leukemia | HOP-18 NSCLC | HL-60(TB) leukemia | COLO 205 colon | OVCAR-8 ovarian | HT29 colon | OVCAR-4 ovarian | KM12 colon | NCI-H460 lung | UO-31 renal | HCT-116 colon | SW-620 colon | DMS 273 small cell lung | SNB-75 CNS | SR leukemia
